PubChem BioAssay (NCI)
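Compound exposure: 48 hours, 5 concentrations, 96-well plates. Abbreviation: GI50, concentration required for 50% inhibition of growth. TGI denotes the concentration required for complete inhibition of growth.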

Assays:
Assay in all cases: inhibition of tumour cell growth, NCI panel, 48 h
[1] = tested on: A498 renal
[2] = tested on: CAKI-1 renal
[3] = tested on: CCRF-CEM leukemia
[4] = tested on: DU-145 prostate
[5] = tested on: HL-60(TB) leukemia
[6] = tested on: HOP-92 NSCLC
[7] = tested on: KM12 colon
[8] = tested on: MDA-MB-435
[9] = tested on: NCI-H226 lung
[10] = tested on: NCI-H460 lung
[11] = tested on: OVCAR-3 ovarian
[12] = tested on: SF-268 CNS
[13] = tested on: SF-539 CNS
[14] = tested on: SK-MEL-2 melanoma
[15] = tested on: SK-OV-3 ovarian
[16] = tested on: SNB-19 CNS
[17] = tested on: SNB-75 CNS
[18] = tested on: SW-620 colon
[19] = tested on: TK-10 renal
[20] = tested on: UACC-257 melanoma
[21] = tested on: UO-31 renal
[22] = tested on: A549 NSCLC
[23] = tested on: ACHN renal
[24] = tested on: BT-549 breast
[25] = tested on: EKVX NSCLC
[26] = tested on: HCC-2998 colon
[27] = tested on: HCT-15 colon
[28] = tested on: HOP-62 NSCLC
[29] = tested on: K-562 leukemia
[30] = tested on: M14 melanoma
[31] = tested on: NCI-H23 lung
[32] = tested on: NCI/ADR-RES ovarian
[33] = tested on: OVCAR-4 ovarian
[34] = tested on: OVCAR-5 ovarian
[35] = tested on: RPMI-8226 leukemia
[36] = tested on: RXF 393 renal
[37] = tested on: SF-295 CNS
[38] = tested on: 786-0 renal
[39] = tested on: COLO 205 colon
[40] = tested on: HCT-116 colon
[41] = tested on: HS 578T breast
[42] = tested on: HT29 colon
[43] = tested on: IGROV1 ovarian
[44] = tested on: MALME-3M melanoma
[45] = tested on: MDA-MB-231 breast
[46] = tested on: MOLT-4 leukemia
[47] = tested on: NCI-H522 lung
[48] = tested on: OVCAR-8 ovarian
[49] = tested on: SK-MEL-28 melanoma
[50] = tested on: SK-MEL-5 melanoma
[51] = tested on: T-47D breast
[52] = tested on: LOX IMVI melanoma
[53] = tested on: MCF7 breast
[54] = tested on: PC-3 prostate
[55] = tested on: SN12C renal
[56] = tested on: U251 CNS
[57] = tested on: UACC-62 melanoma

C=C(C)[C@@H]1CC[C@]2(C(=O)NC3CCCCC3)CC[C@]3(C)[C@H](CC[C@@H]4[C@@]5(C)CCCNC(C)(C)[C@@H]5CC[C@]43C)[C@@H]12
GI50 [1]: 14.3 µM
TGI [1]: 28.8 µM
GI50 [2]: 1.56 µM
TGI [2]: 2.93 µM
GI50 [3]: 2.3 µM
TGI [3]: 6.68 µM
GI50 [4]: 1.91 µM
TGI [4]: 3.63 µM
GI50 [5]: 2.12 µM
TGI [5]: 4.61 µM
GI50 [6]: 1.55 µM
TGI [6]: 3.15 µM
GI50 [7]: 1.92 µM
TGI [7]: 3.64 µM
GI50 [8]: 1.7 µM
TGI [8]: 3.15 µM
GI50 [9]: 4.83 µM
TGI [9]: 36.2 µM
GI50 [10]: 1.78 µM
TGI [10]: 3.3 µM
GI50 [11]: 1.87 µM
TGI [11]: 3.57 µM
GI50 [12]: 5.29 µM
TGI [12]: 26 µM
GI50 [13]: 1.69 µM
TGI [13]: 3.11 µM
GI50 [14]: 1.91 µM
TGI [14]: 3.72 µM
GI50 [15]: 1.77 µM
TGI [15]: 3.26 µM
GI50 [16]: 5.51 µM
TGI [16]: 33.3 µM
GI50 [17]: 1.48 µM
TGI [17]: 3.05 µM
GI50 [18]: 1.67 µM
TGI [18]: 3.15 µM
GI50 [19]: 1.87 µM
TGI [19]: 3.6 µM
GI50 [20]: 1.72 µM
TGI [20]: 3.31 µM
GI50 [21]: 1.42 µM
TGI [21]: 2.73 µM

Cn1nc(C(=O)N2CC(CCl)c3c2cc(N)c2ccccc32)cc1NC(=O)Nc1cc(C(=O)N2CC(CCl)c3c2cc(N)c2ccccc32)nn1C (stereo not drawn)
TGI [1]: 54.5 µM
TGI [22]: > 100 µM
TGI [23]: > 100 µM
TGI [24]: 0.523 µM
TGI [2]: 6.13 µM
TGI [25]: > 100 µM
TGI [26]: > 100 µM
TGI [27]: > 100 µM
TGI [28]: 69.3 µM
TGI [29]: > 100 µM
TGI [7]: > 100 µM
TGI [30]: 5.58 µM
TGI [31]: 0.661 µM
TGI [10]: > 100 µM
TGI [32]: > 100 µM
TGI [33]: > 100 µM
TGI [34]: > 100 µM
TGI [35]: > 100 µM
TGI [36]: 0.511 µM
TGI [37]: > 100 µM
TGI [15]: > 100 µM
TGI [16]: 2.32 µM
TGI [18]: > 100 µM
TGI [19]: > 100 µM
TGI [21]: 65.5 µM

CC(C)(C)c1ccc(O)c(C(O)c2ccncc2)c1 (stereo not drawn)
TGI [38]: > 100 µM
TGI [22]: > 100 µM
TGI [23]: > 100 µM
TGI [24]: > 100 µM
TGI [2]: > 100 µM
TGI [3]: > 100 µM
TGI [39]: > 100 µM
TGI [4]: > 100 µM
TGI [25]: > 100 µM
TGI [26]: > 100 µM
TGI [40]: > 100 µM
TGI [27]: > 100 µM
TGI [28]: > 100 µM
TGI [41]: > 100 µM
TGI [42]: > 100 µM
TGI [43]: > 100 µM
TGI [29]: > 100 µM
TGI [7]: > 100 µM
TGI [44]: > 100 µM
TGI [45]: > 100 µM
TGI [46]: > 100 µM
TGI [9]: > 100 µM
TGI [31]: > 100 µM
TGI [10]: > 100 µM
TGI [47]: > 100 µM
TGI [32]: > 100 µM
TGI [11]: > 100 µM
TGI [34]: > 100 µM
TGI [48]: > 100 µM
TGI [36]: > 100 µM
TGI [12]: > 100 µM
TGI [13]: > 100 µM
TGI [49]: > 100 µM
TGI [50]: 66.7 µM
TGI [17]: > 100 µM
TGI [18]: > 100 µM
TGI [51]: > 100 µM
TGI [21]: > 100 µM

O=C(c1ccccc1)c1cc2ccccc2o1
GI50 [38]: > 100 µM
TGI [38]: > 100 µM
GI50 [1]: 39.9 µM
TGI [1]: > 100 µM
GI50 [22]: 95 µM
TGI [22]: > 100 µM
GI50 [23]: > 100 µM
TGI [23]: > 100 µM
GI50 [24]: 73 µM
TGI [24]: > 100 µM
GI50 [2]: 67 µM
TGI [2]: > 100 µM
GI50 [3]: > 100 µM
TGI [3]: > 100 µM
GI50 [39]: > 100 µM
TGI [39]: > 100 µM
GI50 [4]: 73.6 µM
TGI [4]: > 100 µM
GI50 [25]: 32.6 µM
TGI [25]: > 100 µM
GI50 [26]: > 100 µM
TGI [26]: > 100 µM
GI50 [40]: 62.7 µM
TGI [40]: > 100 µM
GI50 [27]: > 100 µM
TGI [27]: > 100 µM
GI50 [28]: > 100 µM
TGI [28]: > 100 µM
GI50 [6]: 26.7 µM
TGI [6]: > 100 µM
GI50 [41]: 37.5 µM
TGI [41]: > 100 µM
GI50 [42]: 76.1 µM
TGI [42]: > 100 µM
GI50 [43]: 25.4 µM
TGI [43]: > 100 µM
GI50 [7]: > 100 µM
TGI [7]: > 100 µM
GI50 [52]: 73.6 µM
TGI [52]: > 100 µM
GI50 [30]: > 100 µM
TGI [30]: > 100 µM
GI50 [44]: > 100 µM
TGI [44]: > 100 µM
GI50 [53]: > 100 µM
TGI [53]: > 100 µM
GI50 [45]: 91.9 µM
TGI [45]: > 100 µM
GI50 [8]: > 100 µM
TGI [8]: > 100 µM
GI50 [9]: > 100 µM
TGI [9]: > 100 µM
GI50 [31]: > 100 µM
TGI [31]: > 100 µM
GI50 [10]: > 100 µM
TGI [10]: > 100 µM
GI50 [47]: 82.1 µM
TGI [47]: > 100 µM
GI50 [32]: 77.4 µM
TGI [32]: > 100 µM
GI50 [11]: 59.6 µM
TGI [11]: > 100 µM
GI50 [33]: > 100 µM
TGI [33]: > 100 µM
GI50 [34]: > 100 µM
TGI [34]: > 100 µM
GI50 [48]: > 100 µM
TGI [48]: > 100 µM
GI50 [54]: 85.2 µM
TGI [54]: > 100 µM
GI50 [35]: 91.8 µM
TGI [35]: > 100 µM
GI50 [36]: 88 µM
TGI [36]: > 100 µM
GI50 [12]: 70.3 µM
TGI [12]: > 100 µM
GI50 [37]: 71.7 µM
TGI [37]: > 100 µM
GI50 [13]: > 100 µM
TGI [13]: > 100 µM
GI50 [14]: > 100 µM
TGI [14]: > 100 µM
GI50 [49]: > 100 µM
TGI [49]: > 100 µM
GI50 [50]: 80 µM
TGI [50]: > 100 µM
GI50 [15]: > 100 µM
TGI [15]: > 100 µM
GI50 [55]: > 100 µM
TGI [55]: > 100 µM
GI50 [16]: > 100 µM
TGI [16]: > 100 µM
GI50 [17]: 63.2 µM
TGI [17]: > 100 µM
GI50 [18]: 80 µM
TGI [18]: > 100 µM
GI50 [51]: 83.3 µM
TGI [51]: > 100 µM
GI50 [19]: > 100 µM
TGI [19]: > 100 µM
GI50 [56]: 54.5 µM
TGI [56]: > 100 µM
GI50 [20]: 77.9 µM
TGI [20]: > 100 µM
GI50 [57]: > 100 µM
TGI [57]: > 100 µM
GI50 [21]: 21.3 µM
TGI [21]: > 100 µM
